Results on 25 compounds are retold here after patent US8183246B2, “Acyclically substituted furopyrimidine derivatives and use thereof” (Bayer Intellectual Property GmbH, priority 2005, dated 2012).

By pIC50 is commonly meant −log10 of the IC50, conventionally taken in molar units.

pIC50: −log10 of the molar value.

This test addresses T1, Prostacyclin Receptors (IP Receptors) of Human Thrombocyte Membranes (Homo sapiens, UniProt P43119).
T1 construct: Thrombocyte membranes are obtained by centrifuging 50 ml human blood; tissue Maco Pharma, Langen (buffy coats); host or cells: human thrombocyte (platelet) membranes from human blood
In words: Binding to prostacyclin receptors (IP receptors) of human thrombocyte membranes (3H-Iloprost displacement). The settings on record: 3 nM 3H-Iloprost, 300-1000 μg/ml human thrombocyte membranes, 60 min, room temperature. As for the experimental part:
B-1. Studies of Binding to Prostacyclin Receptors (IP Receptors) of Human Thrombocyte Membranes
Thrombocyte membranes are obtained by centrifuging 50 ml human blood (Buffy coats with CDP Stabilizer, from Maco Pharma, Langen) for 20 min at 160×g. Remove the supernatant (platelet-rich plasma, PRP) and then centrifuge again at 2000×g for 10 min at room temperature. Resuspend the sediment in 50 mM tris-(hydroxymethyl)-aminomethane, which has been adjusted to a pH of 7.4 with 1 N hydrochloric acid, and store at −20° C. overnight. On the next day, centrifuge the suspension at 80000×g and 4° C. for 30 min. Discard the supernatant. Resuspend the sediment in 50 mM tris-(hydroxymethyl)-aminomethane/hydrochloric acid, 0.25 mM ethylene diamine tetraacetic acid (EDTA), pH 7.4, and then centrifuge once again at 80000×g and 4° C. for 30 min. Take up the membrane sediment in binding buffer (50 mM tris-(hydroxymethyl)-aminomethane/hydrochloric acid, 5 mM magnesium chloride, pH 7.4) and store at −70° C. until the binding test.
For the binding test, incubate 3 nM ^3H-Iloprost (592 GBq/mmol, from AmershamBioscience) for 60 min with 300-1000 μg/ml human thrombocyte membranes per charge (max. 0.2 ml) in the presence of the test substances at room temperature. After stopping, add cold binding buffer to the membranes and wash with 0.1% bovine serum albumin. After adding Ultima Gold Scintillator, quantify the radioactivity bound to the membranes using a scintillation counter. The nonspecific binding is defined as radioactivity in the presence of 1 μM Iloprost (from Cayman Chemical, Ann Arbor) and is as a rule <25% of the bound total radioactivity. The binding data (IC50 values) are determined using the program GraphPad Prism Version 3.02.

T1 sequence (P43119 whole entry): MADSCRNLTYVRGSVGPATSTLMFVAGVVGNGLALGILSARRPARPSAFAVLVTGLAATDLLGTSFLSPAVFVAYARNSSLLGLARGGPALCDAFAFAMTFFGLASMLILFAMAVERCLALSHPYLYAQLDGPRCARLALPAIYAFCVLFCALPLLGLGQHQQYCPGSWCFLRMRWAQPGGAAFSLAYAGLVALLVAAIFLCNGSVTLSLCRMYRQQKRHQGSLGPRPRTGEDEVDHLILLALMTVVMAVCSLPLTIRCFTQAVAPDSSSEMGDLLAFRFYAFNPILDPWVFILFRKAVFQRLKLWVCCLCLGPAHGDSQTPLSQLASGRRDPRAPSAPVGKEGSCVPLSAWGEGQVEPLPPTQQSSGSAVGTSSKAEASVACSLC

Consider `CCc1ccc(-c2c(-c3ccccc3)oc3ncnc(O[C@H](C)CCOCC(=O)O)c23)cc1` [Example 80, (−)-{[3-{[5-(4-Ethylphenyl)-6-phenylfuro[2,3-d]pyrimidin-4-yl]oxy}butyl]oxy}acetic acid], for which the pIC50 is 7.66.
As for `CCc1ccc(-c2c(-c3ccccc3)oc3ncnc(NCCCCCC(=O)OC)c23)cc1` [Example 36], the figure is 6.66; as for `COc1ccc(-c2c(-c3ccccc3Cl)oc3ncnc(NCCCCCC(=O)O)c23)cc1` [Example 117, 6-{[6-(2-Chlorophenyl)-5-(4-methoxyphenyl)furo[2,3-d]pyrimidin-4-yl]amino}hexanoic acid], 7.08; as for `COC(=O)CCCCCN(C)c1ncnc2oc(-c3ccccc3)c(-c3ccc(OC)cc3)c12` [Example 45, 6-{[5-(4-Methoxyphenyl)-6-phenylfuro[2,3-d]pyrimidin-4-yl](methyl)amino}hexanoic acid methyl ester], 6.05.
Then `COc1ccc(-c2c(-c3ccccc3)oc3ncnc(OC[C@H](C)OCCC(=O)O)c23)cc1` [Example 83, (+)-3-{[(2S)-2-{[5-(4-Methoxyphenyl)-6-phenylfuro[2,3-d]pyrimidin-4-yl]oxy}-1-methylethoxy]-oxy}propionic acid], with 7.70; and `COc1ccc(-c2c(-c3ccccc3)oc3ncnc(OCC(C)(C)COCC(=O)O)c23)cc1` [Example 95, (3-{[5-(4-Methoxyphenyl)-6-phenylfuro[2,3-d]pyrimidin-4-yl]oxy}-2,2-dimethylpropoxy)acetic acid], with 8.00; and `COc1ccc(-c2c(-c3ccccc3)oc3ncnc(OC(C)CN(C)CCCC(=O)O)c23)cc1` (racemic) [Example 92, (+/−)-4-[(2-{[5-(4-Methoxyphenyl)-6-phenylfuro[2,3-d]pyrimidin-4-yl]oxy}propyl)(methyl)-amino]butanoic acid], with 6.66.
Then `COC(=O)CCCCC(C)Oc1ncnc2oc(-c3ccccc3)c(-c3ccc(OC)cc3)c12` (racemic) [Example 63, (+/−)-6-{[5-(4-Methoxyphenyl)-6-phenylfuro[2,3-d]pyrimidin-4-yl]oxy}heptanoic acid methyl ester], with 7.43; and `COC(=O)CCCCCNc1ncnc2oc(-c3ccccc3F)c(-c3ccc(OC)cc3)c12` [Example 113, 6-{[6-(2-Fluorophenyl)-5-(4-methoxyphenyl)furo[2,3-d]pyrimidin-4-yl]amino}hexanoic acid methyl ester], with 7.29.
Compound `COc1ccc(-c2c(-c3ccccc3)oc3ncnc(NCCCCCC(=O)O)c23)cc1` [Example 1, 6-{[5-(4-Methoxyphenyl)-6-phenylfuro[2,3-d]pyrimidin-4-yl]amino}hexanoic acid] showed a pIC50 of 6.69. This pIC50 is 0.60 log units lower than that of the compound before.
As for `CCc1ccc(-c2c(-c3ccccc3)oc3ncnc(O[C@@H](C)COCCC(=O)O)c23)cc1` [Example 85, (+)-3-{[2-{[5-(4-Ethylphenyl)-6-phenylfuro[2,3-d]pyrimidin-4-yl]oxy}propyl]oxy}propionic acid], the figure is 6.33.
Then `CCOC(=O)COC[C@@H](C)COc1ncnc2oc(-c3ccccc3F)c(-c3ccc(OC)cc3)c12` [Example 152, (−)-{[(2R)-3-{[5-(4-Methoxyphenyl)-6-(2-fluorophenyl)furo[2,3-d]pyrimidin-4-yl]oxy}-2-methyl-propyl]oxy}acetic acid ethyl ester], with 8.43.
Then `COc1ccc(-c2c(-c3ccccc3)oc3ncnc(NCCCCCc4nnn[nH]4)c23)cc1` [Example 4, 5-(4-Methoxyphenyl)-6-phenyl-N-[5-(1H-tetrazol-5-yl)pentyl]furo[2,3-d]pyrimidine-4-amine], with 7.47; and `COc1ccc(-c2c(-c3ccccc3)oc3ncnc(O[C@H](C)CCCCC(=O)O)c23)cc1` (single isomer, unassigned; enantiomer 2) [Example 69, (−)-6-{[5-(4-Methoxyphenyl)-6-phenylfuro[2,3-d]pyrimidin-4-yl]oxy}heptanoic acid (Enantiomer 2)], with 8.05; and `CCc1ccc(-c2c(-c3ccccc3)oc3ncnc(O[C@@H](C)CN(C)CCCC(=O)O)c23)cc1` [Example 140, (+)-4-{[(2S)-2-{[5-(4-Ethylphenyl)-6-phenylfuro[2,3-d]pyrimidin-4-yl]oxy}propyl](methyl)-amino}butyric acid], with 7.28.
For the compound `CCc1ccc(-c2c(-c3ccccc3F)oc3ncnc(OC[C@H](C)COCC(=O)O)c23)cc1` [Example 154, (−)-{[(2R)-3-{[5-(4-Ethylphenyl)-6-(2-fluorophenyl)furo[2,3-d]pyrimidin-4-yl]oxy}-2-methyl-propyl]oxy}acetic acid], the pIC50 is 8.42.
Compound `COc1ccc(-c2c(-c3ccccc3)oc3ncnc(NCCCOCCc4nnn[nH]4)c23)cc1` [Example 15, 5-(4-Methoxyphenyl)-6-phenyl-N-{3-[2-(1H-tetrazol-5-yl)ethoxy]propyl}furo[2,3-d]pyrimidine-4-amine] gave a pIC50 of 7.09.
Then `COc1ccc(-c2c(-c3ccccc3)oc3ncnc(OCCCCCc4nnn[nH]4)c23)cc1` [Example 14, 5-(4-Methoxyphenyl)-6-phenyl-4-{[5-(1H-tetrazol-5-yl)pentyl]oxy}-furo[2,3-d]pyrimidine], with 7.31.
As for `C=Cc1ccc(-c2c(-c3ccccc3)oc3ncnc(NCCCCCC(=O)O)c23)cc1` [Example 33], the figure is 7.19; as for `COc1ccc(-c2c(-c3ccccc3C)oc3ncnc(NCCCCCC(=O)O)c23)cc1` [Example 122, 6-{[5-(4-Methoxyphenyl)-6-(2-methylphenyl)furo[2,3-d]pyrimidin-4-yl]amino}hexanoic acid], 7.32.
As for `COc1ccc(-c2c(-c3ccccc3)oc3ncnc(OCC(C)COCC(=O)O)c23)cc1` (single isomer, unassigned; enantiomer 1) [Example 128, (+)-(3-{[5-(4-Methoxyphenyl)-6-phenylfuro[2,3-d]pyrimidin-4-yl]oxy}-2-methylpropoxy)acetic acid (Enantiomer 1)], the figure is 7.48; as for `COc1ccc(-c2c(-c3ccccc3F)oc3ncnc(O[C@@H](C)CN(C)CCCC(=O)O)c23)cc1` [Example 138, (+)-4-{[(2S)-2-{[6-(2-Fluorophenyl)-5-(4-methoxyphenyl)furo[2,3-d]pyrimidin-4-yl]oxy}propyl]-(methyl)amino}butyric acid], 7.28; as for `CCc1ccc(-c2c(-c3ccccc3F)oc3ncnc(OC[C@H](C)OCCC(=O)O)c23)cc1` [Example 156, 3-[(1S)-2-{[5-(4-Ethylphenyl)-6-(2-fluorophenyl)furo[2,3-d]pyrimidin-4-yl]oxy}-1-methylethoxy]-propionic acid], 7.89.
`COc1ccc(-c2c(-c3ccccc3)oc3ncnc(OC(C)CC(C)OCC(=O)O)c23)cc1` (single isomer, unassigned; enantiomer 2) [Example 146, (3-{[5-(4-Methoxyphenyl)-6-phenylfuro[2,3-d]pyrimidin-4-yl]oxy}-1-methylbutoxy)acetic acid (Enantiomer 2)]: the pIC50 is 8.15.
Then `CCc1ccc(-c2c(-c3ccccc3F)oc3ncnc(O[C@H](C)CCCCC(=O)O)c23)cc1` [Example 142, (−)-(6R)-6-{[5-(4-Ethylphenyl)-6-(2-fluorophenyl)furo[2,3-d]pyrimidin-4-yl]oxy}heptanoic acid], with 8.60.
